Assay: Human HepG2 cell viability assay in 384 well format
Format: toxicity, cell-based
Parameters: dose 125 nL, time 70.5 hour; cytotoxicity at 70.5 h: concentration not given beside the values
Conditions: HepG2 cells, read-out: Inhibition

Row | Structure (SMILES) | cytotoxicity at 70.5 h [%]
1 | Cn1cncc1-c1nnc([C@H]2CCN(CC(C)(C)C)C2)o1 | 14
2 | CN1CC[C@H](c2nnc(-c3cncn3C)o2)C1 | -0.523
3 | c1cncc(-c2nnc([C@H]3CCN(CC4CCCCC4)C3)o2)c1 | -6.55
4 | Fc1ccc(OCc2nnc([C@H]3CCN(Cc4cccnc4)C3)o2)cc1 | -6.19
5 | CC(C)CCN1CC[C@H](c2nnc(Cc3c[nH]c4ccccc34)o2)C1 | 1.15
6 | c1ccc2c(Cc3nnc([C@H]4CCN(CC5CC5)C4)o3)c[nH]c2c1 | -0.383
7 | CN1C(=O)CO[C@H](c2ccc(NC(=O)Nc3ccccc3)cc2)[C@H]1CO | -7.02
8 | F[C@@H]1CN(CC2CC2)C[C@@H]1OCc1nc2cnccc2[nH]1 | -0.16
9 | F[C@@H]1CN(Cc2ccccc2)C[C@@H]1OCc1nc2cnccc2[nH]1 | 13.9
10 | COc1ccccc1CN1C[C@@H](F)[C@@H](OCc2nc3ccccc3[nH]2)C1 | -0.935
11 | CCNC(=O)NC[C@H]1COCc2nc3cc(OC)ccc3n21 | -10.9
12 | Cc1cccc2c1nc1n2[C@@H](CNC2CCCCC2)COC1 | 8.3
13 | O=C(C1CCOCC1)N1C[C@@H](F)[C@@H](OCc2nc3cc(F)ccc3[nH]2)C1 | -2.48
14 | Cc1cc2nc(CO[C@H]3CN(C4CCN(C)CC4)C[C@H]3F)[nH]c2cc1C | -4.5
15 | O=C(NC[C@H]1COCc2nc3cc(F)ccc3n21)c1cccnc1 | -2.79
16 | Cc1ccc2[nH]c(CO[C@H]3CN(c4ccc(C#N)cn4)C[C@H]3F)nc2c1 | -3.04
17 | CC(=O)N1CCC(N2CC[C@H](c3nc4cc(F)ccc4o3)C2)CC1 | 0.135
18 | COC(=O)[C@@H]1Cc2ncn(C)c2CN1S(=O)(=O)c1ccc(OC)cc1 | -3.58
19 | CCCn1cnc2c1CN(C(=O)c1ccc(F)cc1)[C@H](C(=O)OC)C2 | -7.42
20 | CCCn1cnc2c1CN(S(=O)(=O)c1ccc(F)cc1)[C@H](C(=O)OC)C2 | 12.5

Row | Structure (SMILES) | cytotoxicity at 70.5 h [%]
21 | CC[C@H]1CN2CC[C@H]1C[C@@H]2CNCc1ccc(N(C)C)cc1 | 26.4
22 | CN1CCN(C[C@H]2CN3CC[C@H]2C[C@@H]3CNC(=O)c2ccco2)CC1 | -6.36
23 | CN1CCC(N2CCC[C@H]2c2nc(-c3cncnc3N)no2)CC1 | -0.402
24 | CC1=C[C@@H](CN2CCC(O)CC2)[C@H](C(C)C)C[C@H]1Cc1nnc(C)o1 | -4.6
25 | CCS(=O)(=O)c1ccc2oc([C@H]3CCN(Cc4cccnc4)C3)nc2c1 | 9.25
26 | CN(C)c1ccc(-c2nnc([C@H]3CCN(C4CCCCC4)C3)o2)cc1 | -4.32
27 | COCC(=O)Nc1ccc([C@@H](O)[C@H]2COCC(=O)N2CC(C)C)cc1 | 8.86
28 | CC(C)(C)c1cc(C[C@H]2CNCC[C@H]2CC(=O)NC2CCCCC2)no1 | 2.18
29 | CC(C)N1C[C@H](O)C[C@H]1c1nc(-c2ccc(OC(F)(F)F)cc2)no1 | -3.17
30 | O=C(NC[C@H]1OC[C@@H](NC2CCC(F)(F)CC2)[C@@H]1O)C1CCCC1 | -10.5
31 | CC(C)N[C@@H]1CO[C@H](CNC(=O)c2ccccc2)[C@H]1O | -0.106
32 | O=C(NC[C@H]1OC[C@@H](NCc2ccccn2)[C@@H]1O)c1ccc(F)cc1 | 2.33
33 | Cc1ccc(S(=O)(=O)NC[C@H]2OC[C@@H](NCc3ccccn3)[C@@H]2O)cc1 | -6.39
34 | CC(C)Cc1cc(CC2(NCc3ccccc3Cl)COC2)no1 | 4.27
35 | CC(C)CNC[C@H]1O[C@H](Cc2cc(-c3ccccn3)on2)CC[C@@H]1O | 0.841
36 | COCCN1C[C@H]2CN(C(=O)c3ccno3)CCN2C1=O | -6.26
37 | O[C@H]1COCCN(Cc2cccc(C(F)(F)F)c2)C1 | -9.83
38 | COCC(=O)NC[C@H]1OC[C@@H](NC2CCC(F)(F)CC2)[C@@H]1O | -8.37
39 | CC[C@H]1CN(S(=O)(=O)c2ccccc2)CC[C@H]1CC(=O)O | 5.41
40 | O=C(NC[C@H]1OC[C@@H](NC2CCNCC2)[C@@H]1O)C1CCCC1 | -5.05
